The term IC50 denotes the midpoint of a concentration-inhibition curve.

Structures are written as SMILES. Where a SMILES comes first, the peptide text is derived from it. Bridges are numbered along the chain shown (N, C = ends). [ ]: non-standard residue; d: D form. The star is where a group is joined. ξ: configuration not given here. Ala(1-amidino-4-piperidyl) = N=C(N)N1CCC(C[C@H](N)C(=O)O)CC1; Phe(4-COOH) = N[C@@H](Cc1ccc(C(=O)O)cc1)C(=O)O; Tyr(3-Cl) = N[C@@H](Cc1ccc(O)c(Cl)c1)C(=O)O; Bip = N[C@@H](Cc1ccc(-c2ccccc2)cc1)C(=O)O; aIle = CC[C@@H](C)[C@H](N)C(=O)O; 4Pal = N[C@@H](Cc1ccncc1)C(=O)O; Cha = N[C@@H](CC1CCCCC1)C(=O)O; Cit = NC(=O)NCCC[C@H](N)C(=O)O; Ile(3ξ) = CCC(C)[C@H](N)C(=O)O; dCha = N[C@H](CC1CCCCC1)C(=O)O; NMeDab = CN[C@@H](CCN)C(=O)O; Carboxymethyl = O=C(O)C*; Nle = CCCC[C@H](N)C(=O)O; Orn = NCCC[C@H](N)C(=O)O; Dab = NCC[C@H](N)C(=O)O; Dap = NC[C@H](N)C(=O)O

The text below walks through data of US20250163104A1, “MACROCYCLIC IMMUNOMODULATORS” (priority 2021, published 2025).

In the test the target is T1, human PD-1 / PD-L1-Ig binding on Jurkat cell line over-expressing human PD-1 (Jurkat-PD-1) (Homo sapiens, UniProt Q15116).
T1 construct: expressed in transfected cells; host or cells: Jurkat
T1 sequence (Q15116 25-288): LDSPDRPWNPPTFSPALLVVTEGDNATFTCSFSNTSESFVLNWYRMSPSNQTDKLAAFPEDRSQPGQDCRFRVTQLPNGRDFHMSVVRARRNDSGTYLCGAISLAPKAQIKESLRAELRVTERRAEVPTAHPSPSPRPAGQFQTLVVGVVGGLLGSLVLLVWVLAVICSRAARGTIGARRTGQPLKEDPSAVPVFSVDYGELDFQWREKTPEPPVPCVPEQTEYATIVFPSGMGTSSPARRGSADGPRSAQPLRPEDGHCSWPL
Nature of the test: Jurkat-PD-1 Cell Binding High-Content Screening Assay (CBA). The note with it: Jurkat-PD-1 cells, PE-labeled PD-L1-Ig 20 nM final; read-out: Jurkat HPD1_PDL1 IC50. In kind it is cell-based. Summed up:
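Jurkat cells over-expressing human PD-1, in DMEM/10% FCS, pre-incubated with compound 2 h at 37° C. PE-labeled human PD-L1-Ig (20 nM final) added for 1 h; cells fixed in paraformaldehyde with Hoechst 33342 nuclear stain, washed, and bound fluorescence quantified by high-content imaging.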

Consider `CC(C)C[C@H]1NC(=O)[C@H](CCCN)NC(=O)[C@H](CCCNC(N)=O)NC(=O)[C@H](Cc2ccc(-c3ccccc3)cc2)NC(=O)[C@H](C(C)C)NC(=O)[C@H](Cc2c[nH]c3ccccc23)NC(=O)[C@H](CC(=O)O)NC(=O)[C@H](Cc2ccc(OCC(=O)O)cc2)NC(=O)[C@H](CC2CCN(C(=N)N)CC2)NC(=O)CSC[C@@H](C(=O)N[C@@H](C)C(N)=O)NC(=O)[C@H](CO)NC(=O)[C@H](C(C)C)NC(=O)[C@H](CC2CCCCC2)NC(=O)[C@H](CN)NC1=O` [Compound 2504] ({CH2CO}-[Ala(1-amidino-4-piperidyl)]Y(Carboxymethyl)DWV[Bip][Cit][Orn][dL][Dap][Cha]VSCA-NH2; thioether N-14), for which the IC50 was found to be 15.9 nM.

Consider `CC(C)C[C@@H]1NC(=O)[C@H](CCCNC(=N)N)NC(=O)[C@@H](CC(C)C)NC(=O)[C@H](CCCN)NC(=O)[C@H](CCCNC(=N)N)NC(=O)[C@H](Cc2ccc(-c3ccccc3)cc2)NC(=O)[C@H](C(C)C)NC(=O)[C@H](Cc2c[nH]c3ccccc23)NC(=O)[C@H](CC(=O)O)NC(=O)[C@H](Cc2ccc(O)cc2)NC(=O)[C@H](CC(N)=O)NC(=O)CSC[C@@H](C(=O)N[C@@H](C)C(N)=O)NC(=O)[C@H]([C@@H](C)O)NC(=O)[C@H](C(C)C)NC1=O` [Compound 1012] ({CH2CO}-NYDWV[Bip]R[Orn][dL]RLVTCA-NH2; thioether N-14), for which the IC50 came to 43.6 nM.

As to `CC(C)C[C@@H]1NC(=O)[C@H](CCN)NC(=O)[C@@H](CC(C)C)NC(=O)[C@H](CCCCN)NC(=O)[C@H](CCCNC(=N)N)NC(=O)[C@H](Cc2ccc(-c3ccccc3)cc2)NC(=O)[C@H](C(C)C)NC(=O)[C@H](Cc2c[nH]c3ccccc23)NC(=O)[C@H](CC(=O)O)NC(=O)[C@H](Cc2ccc(O)cc2)NC(=O)[C@H](CC(N)=O)NC(=O)CSC[C@@H](C(=O)N[C@@H](C)C(N)=O)NC(=O)[C@H]([C@@H](C)O)NC(=O)[C@H](C(C)C)NC1=O` [Compound 1008] ({CH2CO}-NYDWV[Bip]RK[dL][Dab]LVTCA-NH2; thioether N-14), the IC50 was 59.9 nM.

Turning to `CC(C)C[C@H]1NC(=O)[C@H](CCCN)NC(=O)[C@H](C(C)C)NC(=O)[C@H](Cc2ccc(-c3ccccc3)cc2)NC(=O)[C@H](C(C)C)NC(=O)[C@H](Cc2ccc(O)c(Cl)c2)NC(=O)[C@H](CC(=O)O)NC(=O)[C@H](Cc2ccc(OCC(=O)O)cc2)NC(=O)[C@H](CN)NC(=O)CSC[C@@H](C(=O)N[C@@H](CCN)C(N)=O)NC(=O)[C@H](CCCCN)NC(=O)[C@H](C(C)C)NC(=O)[C@H](CC2CCCCC2)NC(=O)[C@H](CCN)NC1=O` [Compound 2035] ({CH2CO}-[Dap]Y(Carboxymethyl)D[Tyr(3-Cl)]V[Bip]V[Orn][dL][Dab][Cha]VKC[Dab]-NH2; thioether N-14), the IC50 stood at 15 nM.

On to `CCC(C)[C@@H]1NC(=O)[C@H](Cc2ccc(-c3ccccc3)cc2)NC(=O)[C@H](C(C)C)NC(=O)[C@H](Cc2c[nH]c3ccccc23)NC(=O)[C@H](CC(=O)O)NC(=O)[C@H](Cc2ccc(OCC(=O)O)cc2)NC(=O)[C@H](CCN)N(C)C(=O)CSC[C@@H](C(=O)N[C@@H](C)C(N)=O)NC(=O)[C@H](CO)NC(=O)[C@H](C(C)C)NC(=O)[C@H](CC2CCCCC2)NC(=O)[C@H](CCN)NC(=O)[C@@H](CC(C)C)NC(=O)[C@H](CCCN)NC1=O` (stereo partly drawn) [Compound 2517] ({CH2CO}-[NMeDab]Y(Carboxymethyl)DWV[Bip][Ile(3ξ)][Orn][dL][Dab][Cha]VSCA-NH2; thioether N-14), for which the IC50 came out at 3.4 nM.

On to `CC[C@@H](C)[C@@H]1NC(=O)[C@H](Cc2ccc(-c3ccccc3)cc2)NC(=O)[C@H](C(C)C)NC(=O)[C@H](Cc2c[nH]c3ccccc23)NC(=O)[C@H](CC(=O)O)NC(=O)[C@H](Cc2ccncc2)NC(=O)[C@H](CN)NC(=O)CSC[C@@H](C(=O)N[C@@H](C)C(N)=O)NC(=O)[C@H]([C@@H](C)O)NC(=O)[C@H](C(C)C)NC(=O)[C@H](CC2CCCCC2)NC(=O)[C@H](CCN)NC(=O)[C@@H](CC2CCCCC2)NC(=O)[C@H](CCCN)NC1=O` [Compound 1630] ({CH2CO}-[Dap][4Pal]DWV[Bip][aIle][Orn][dCha][Dab][Cha]VTCA-NH2; thioether N-14), for which the IC50 was 48.3 nM.

For `CCCC[C@@H]1NC(=O)[C@H](CCCNC(=N)N)NC(=O)[C@@H](CC(C)C)NC(=O)[C@H](CCCN)NC(=O)[C@H]([C@@H](C)CC)NC(=O)[C@H](Cc2ccc(-c3ccccc3)cc2)NC(=O)[C@H](C(C)C)NC(=O)[C@H](Cc2c[nH]c3ccccc23)NC(=O)[C@H](CC(=O)O)NC(=O)[C@H](Cc2ccc(O)cc2)NC(=O)[C@H](CN)NC(=O)CSC[C@@H](C(=O)N[C@@H](C)C(N)=O)NC(=O)[C@H]([C@@H](C)O)NC(=O)[C@H](C(C)C)NC1=O` [Compound 1149] ({CH2CO}-[Dap]YDWV[Bip]I[Orn][dL]R[Nle]VTCA-NH2; thioether N-14), the IC50 worked out at 47 nM.

Take `CC(C)C[C@@H]1NC(=O)[C@H](Cc2c[nH]c3ccccc23)NC(=O)[C@H](CC(=O)O)NC(=O)[C@H](Cc2ccc(C(=O)O)cc2)NC(=O)[C@H](Cc2ccc(OCC(=O)O)cc2)NC(=O)CSC[C@@H](C(=O)NCC(N)=O)NC(=O)[C@H](CO)NC(=O)[C@H](C(C)C)NC(=O)[C@H](CC(C)C)NC(=O)[C@H](CC(N)=O)NC(=O)[C@@H](CC(C)C)NC(=O)[C@H](CN)NC(=O)[C@H](C(C)C)NC(=O)[C@H](Cc2ccc(-c3ccccc3)cc2)NC1=O` [Compound 1275] ({CH2CO}-Y(Carboxymethyl)[Phe(4-COOH)]DWL[Bip]V[Dap][dL]NLVSCG-NH2; thioether N-14): the IC50 worked out at 13.8 nM.

For `CC[C@H](C)[C@@H]1NC(=O)[C@H](Cc2ccc(-c3ccccc3)cc2)NC(=O)[C@H](C(C)C)NC(=O)[C@H](Cc2c[nH]c3ccccc23)NC(=O)[C@H](CC(=O)O)NC(=O)[C@H](Cc2ccc(O)cc2)NC(=O)[C@H](CC(N)=O)NC(=O)CSC[C@@H](C(=O)NCC(N)=O)NC(=O)[C@H](CO)NC(=O)[C@H](C(C)C)NC(=O)[C@H](CC(C)C)NC(=O)[C@H](CCN)NC(=O)[C@@H](CC(C)C)NC(=O)[C@H](CCCN)NC1=O` [Compound 1121] ({CH2CO}-NYDWV[Bip]I[Orn][dL][Dab]LVSCG-NH2; thioether N-14), the IC50 turned out to be 20.9 nM.

For the compound `CCCC[C@@H]1NC(=O)[C@H](CCN)NC(=O)[C@@H](CC(C)C)NC(=O)[C@H](CCCN)NC(=O)[C@H]([C@@H](C)CC)NC(=O)[C@H](Cc2ccc(-c3ccccc3)cc2)NC(=O)[C@H](C(C)C)NC(=O)[C@H](Cc2cccc(C)c2)NC(=O)[C@H](CC(=O)O)NC(=O)[C@H](Cc2ccc(OCC(=O)O)cc2)NC(=O)[C@H](CN)NC(=O)CSC[C@@H](C(=O)N[C@@H](C)C(N)=O)NC(=O)[C@H]([C@@H](C)O)NC(=O)[C@H](C(C)C)NC1=O` [Compound 1209], the IC50 is 9.9 nM.

As to `CCC(C)[C@@H]1NC(=O)[C@H](Cc2ccc(-c3ccccc3)cc2)NC(=O)[C@H](C(C)C)NC(=O)[C@H](Cc2c[nH]c3ccccc23)NC(=O)[C@H](CC(=O)O)NC(=O)[C@H](Cc2ccc(-c3cccc(C(=O)O)c3)cc2)NC(=O)[C@H](Cc2ccc(OCC(=O)O)cc2)NC(=O)CSC[C@@H](C(=O)N[C@@H](C)C(N)=O)NC(=O)[C@H]([C@@H](C)O)NC(=O)[C@H](C(C)C)NC(=O)[C@H](CC2CCCCC2)NC(=O)[C@H](CCN)NC(=O)[C@@H](CC(C)C)NC(=O)[C@H](CCCN)NC1=O` (some centres unmarked) [Compound 2220], the IC50 amounted to 34.6 nM.
